Our source for the IC50 and Cell viability values is patent US20210238139A1, “MODULATORS OF TRYPTOPHAN CATABOLISM” (E-Therapeutics PLC, priority 2018, published 2021).

A value given as a limit tells only on which side of the number the result lay.

The test system of one data set is SK-OV-3 cells. Nature of the data set: Effect of compounds on tryptophan catabolism in SK-OV-3 cell line (inhibition of kynurenine production, LC-MS/MS). It is filed as cell-based. Conditions: Homo sapiens, SK-OV-3, 24 h, SK-OV-3 cell line, 24 h incubation, kynurenine in supernatant by LC-MS/MS; read-out: IC50 Ranges (ic50 values for inhibition of Kynurenine production). The method, boiled down:
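Cells seeded overnight in McCoy's 5A/10% FBS, then switched to DMEM F-12 with 6 mg/mL L-tryptophan; compounds added at 8 3-fold dilutions from 30 μM, in duplicate, 24 h at 37 °C. Supernatant kynurenine measured by LC-MS/MS; ATP-based viability run in parallel; IC50 from % inhibition of Kyn production.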

The test system of data set [1] is monocyte-derived dendritic cells. Nature of the data set: Effect of compounds on tryptophan catabolism in monocyte-derived dendritic cells (kynurenine production). It is filed as cell-based. Conditions: Homo sapiens, Dendritic cell; dendritic cells triggered with LPS and IFNγ, 24 h with compound. The method, then: (§1) Peripheral blood mononuclear cells are isolated from buffy coats from healthy volunteers by Lymphoprep density gradient centrifugation, followed by lysis of residual erythrocytes with isotonic buffer solution of ammonium chloride. CD14+ cells are isolated by positive selection using MACS® technology and CD14 MicroBeads (Miltenyi Biotec) according to manufacturer's instructions. The isolated monocytes are differentiated into dendritic cells by incubation for 5 days in RPMI-1640 medium supplemented with 10% fetal bovine serum (FBS), 50 ng/mL GM-CSF and 35 ng/mL IL-4. After 5 days the DCs are seeded in 96-well plates in DMEM supplemented with 10% charcoal stripped FBS, GM-CSF and IL-4. The following day cells are triggered with LPS and IFNγ. After 24 h of incubation medium is replaced with DMEM F-12 medium supplemented with 6 mg/mL L-tryptophan and 10% charcoal stripped FBS. Compounds are added to the cells and incubated for 24 h at 37° C., 5% CO2, 95% humidity. Compounds are tested at 7 consecutive 4-fold dilutions starting from 30 μM in duplicate.
(§2) At the end of incubation concentration of kynurenine in cell supernatants is determined by LC-MS/MS. In parallel, cell viability is assessed by measurement of ATP by use of CellTiter Glo assay (Promega) according to manufacturer's protocol.
Inhibition of Kyn production is calculated using the following formula:
(1−(Kyn conc. cmpd.−Kyn conc. medium)/(Kyn conc. medium with cells−Kyn conc. medium))·100
IC50 values are determined using GraphPad Prism software 5.04 for Windows, by plotting percent of inhibition against log 10 concentrations of compounds using a four-parametric sigmoidal curve with a variable slope.

Data set [2] shares this test system. Nature of the data set: Cell viability / cytotoxicity in monocyte-derived dendritic cells (ATP, CellTiter Glo). It is filed as cell-based, human. The note with it: 24 h, unit assumed. The method, then:
as §1, §2
Cell viability results are analysed in Microsoft Excel and expressed as fold change over untreated control.

For orientation: IC50 means the point on the concentration scale where inhibition reaches its midpoint. For `Cc1ccc(CN(C(=O)Nc2ccc(C#N)cc2)C2CCC2)o1` [Compound 84, 3-(4-cyanophenyl)-1-cyclobutyl-1-[(5-methyl-2-furyl)methyl]urea], the IC50 in the data set on SK-OV-3 cells was less than 100 nM; in data set [1] it was 180 nM. Besides, the Cell viability at 30 uM (% of untreated control) in data set [2] was 108%.

Take `O=C(Nc1ccc(F)c(F)c1)N(Cc1cccc(C(F)(F)F)c1)C1CCCC1` [Compound 140, 1-cyclopentyl-3-(3,4-difluorophenyl)-1-[[3(trifluoromethyl)phenyl]methyl]urea]: the IC50 in the data set with SK-OV-3 cells is less than 100 nM; in data set [1] it was 320 nM. In addition, the Cell viability at 30 uM (% of untreated control) in data set [2] was found to be 92%.

In the case of `Cc1ccc(CN(C(=O)Nc2ccc(F)cc2)C2CCC2)o1` [Compound 82, 1-cyclobutyl-3-(4-fluorophenyl)-1-[(5-methyl-2-furyl)methyl]urea], the values for the IC50 (with SK-OV-3 cells; in data set [1]) were 100 to 500 nM and 300 nM, respectively. Moreover, the Cell viability at 30 uM (% of untreated control) in data set [2] is 85%.

Consider `O=C(Nc1ccc(F)c(F)c1)N(Cc1ccc(F)c(C(F)(F)F)c1)C1CCCC1` [Compound 139, 1-cyclopentyl-3-(3,4-difluorophenyl)-1-[[4-fluoro-3-(trifluoromethyl)phenyl]methyl]urea], for which the IC50 with SK-OV-3 cells was less than 100 nM; in data set [1], 270 nM. Besides, in data set [2], the Cell viability at 30 uM (% of untreated control) was 77%.

As to `Cc1ccc(CN(C(=O)NCCc2ccccc2)C2CCCC2)s1` [Compound 26, 1-cyclopentyl-1-[(5-methyl-2-thienyl)methyl]-3-(2-phenylethyl)urea], the values for the half-inhibitory concentration (IC50) (with SK-OV-3 cells; in data set [1]) were less than 100 nM and 100 nM, respectively. The Cell viability at 30 uM (% of untreated control) in data set [2] was found to be 19%.

On to `O=C(Nc1ccc(F)c(F)c1)N(Cc1ccc(F)c(OC(F)(F)F)c1)C1CCCC1` [Compound 141, 1-cyclopentyl-3-(3,4-difluorophenyl)-1-[[4-fluoro-3 (trifluoromethoxy)phenyl]methyl]urea], for which the IC50 in the data set with SK-OV-3 cells was less than 100 nM; in data set [1], 470 nM. Also, the Cell viability at 30 uM (% of untreated control) in data set [2] was found to be 90%.

Regarding `O=C(Nc1ccc(Cl)cc1)N(Cc1cccs1)C1CCCC1` [Compound 56, 3-(4-chlorophenyl)-1-cyclopentyl-1-(2-thienylmethyl)urea], the IC50 with SK-OV-3 cells was less than 100 nM; in data set [1] it was 250 nM. Further, in data set [2], the Cell viability at 30 uM (% of untreated control) turned out to be 94%.

As for `N#Cc1cc(CN(C(=O)Nc2ccc(Cl)cc2)C2CCCC2)ccc1F` [Compound 146, 3-(4-chlorophenyl)-1-[(3-cyano-4-fluoro-phenyl)methyl]-1-cyclopentyl-urea], the IC50 in the data set on SK-OV-3 cells was less than 100 nM; in data set [1] it was 120 nM. The Cell viability at 30 uM (% of untreated control) in data set [2] stood at 103%.

For `O=C(Nc1ccc(Cl)cc1)N(Cc1ccnc(C(F)(F)F)c1)C1CCCC1` [Compound 148, 3-(4-chlorophenyl)-1-cyclopentyl-1-[[2-(trifluoromethyl)-4-pyridyl]methyl]urea], the IC50 in the data set with SK-OV-3 cells was less than 100 nM; in data set [1] it was 150 nM. Also, the Cell viability at 30 uM (% of untreated control) in data set [2] came out at 103%.

As for `N#Cc1ccc(NC(=O)N(Cc2cccc(C(F)(F)F)c2)C2CCCC2)cc1` [Compound 89, 3-(4-cyanophenyl)-1-cyclopentyl-1-[[3-(trifluoromethyl)phenyl]methyl]urea], the IC50 was less than 100 nM in the data set on SK-OV-3 cells and 65 nM in data set [1]. Besides, in data set [2], the Cell viability at 30 uM (% of untreated control) is 81%.

On to `N#Cc1ccc(NC(=O)N(Cc2cccc(C(F)(F)F)c2)C2CCC2)cc1` [Compound 91, 3-(4-cyanophenyl)-1-cyclobutyl-1-[[3-(trifluoromethyl)phenyl]methyl]urea], for which the values for the IC50 (in the data set with SK-OV-3 cells; in data set [1]) were less than 100 nM and 36 nM, respectively. In addition, in data set [2], the Cell viability at 30 uM (% of untreated control) is 71%.
